tested on: PBMC; assay: ELISPOT (IFNγ, IL-5, IL-10, IL-17, IL-21) of PBMC expanded 14 days with Bla g extract, then stimulated with peptides or peptide pools; format: cell-based, human; parameters: key to Average Magnitude of Response: spot forming cells (SFC) per 10^6 PBMC; Response Rate per Subject: unit not given here; key to % (percentage of subjects responding to given antigen) / SFC (mean magnitude of response): “—” denotes no response; details: AR
Description: PBMC Isolation and Cell Cultures: PBMC (peripheral blood mononuclear cells) were isolated from 450 mL (one unit) of blood by density gradient centrifugation as described and cryopreserved. For in vitro expansion of PBMC for peptide screening, cells were cultured in RPMI1640 (Omega Scientific)+5% human AB serum (Gemini Bioscience), GlutaMAX (Gibco), and penicillin/streptomycin (Omega Scientific) at 2×10^6 per mL, stimulated with 10 ug/mL Bla g extract (Greer), and incubated at 37° C. in 5% CO2. Every three days, IL-2 and IL-7 (10 U/mL) were added to the cultures. Cells were harvested for peptide screening at day 14.
ELISPOT Assays: Production of IFNγ, IL-5, IL-17, IL-10, and IL-21 (as representative of TH1, TH2, TH17, TR1, and […], respectively) in response to peptide stimulation was measured by ELISPOT as described previously. […] In brief, 1×10^5 cells per well were incubated with peptide, peptide pool, or Bla g extract (10, 5, and 10 ug/ml, respectively) on anti-lymphokine antibody coated ELISPOT plates (Millipore #MSIPS4510) for 22 hours. Subsequently, secondary anti-lymphokine antibodies were added and incubated for 2 hours, washed, and avidin-peroxidase complex added for 1 hour. Plates were washed and spots developed with 3-amino-9-ethylcarbazole (Sigma #A6926) and Vector Blue (Vector #SK-5300) for IFNγ/IL-5 and IL-10/IL-17 dual plates or TMB (Sigma #T0565) for single IL-21. Criteria for peptide pool positivity were at least 100 spot forming cells (SFC) per 10^6 PBMC, p<0.05, and stimulation index≥2. Criteria for peptide positivity were identical except with a threshold of 20 SFCs.
We synthetized overlapping peptide sets of 15 amino acids in length overlapping by 10 residues and covering the entire sequence of known Bla g Allergens, i.e. Bla g 1-7, 9 and 11, referred from hereafter collectively as BLAGA. A total of 809 BLAGA peptides were arranged in pools, encompassing on average 20 peptides.
To assess T cell reactivity, we utilized a strategy applied to the definition of epitopes from various allergen sources^15,16 utilizing in vitro stimulation with allergen extracts. Here, PBMC from each subject were stimulated in vitro with Bla g extract. After 14 days, pools of overlapping 15-mer peptides from the BLAGA were tested for responses, and positive pools deconvoluted to identify the specific epitopes. As readout, we utilized ELISPOT assays specific for IL-5, IFNγ, IL-10, IL-17 and IL-21, chosen as representative of TH2, TH1, TR1, TH17 and TFH reactivity, respectively.

Substance	% (percentage of subjects responding to given antigen)	SFC (mean magnitude of response)
Receptor for activated protein kinase C [RACK1]	—	—

same assay, conditions: Asthmatic (combines IA, MMA, SA)

Substance	% (percentage of subjects responding to given antigen)	SFC (mean magnitude of response)
Receptor for activated protein kinase C [RACK1]	9%	19 SFC

same assay, conditions: Controls

Substance	% (percentage of subjects responding to given antigen)	SFC (mean magnitude of response)
Receptor for activated protein kinase C [RACK1]	2%	30 SFC

same assay, conditions: IA

Substance	% (percentage of subjects responding to given antigen)	SFC (mean magnitude of response)
Receptor for activated protein kinase C [RACK1]	12%	31 SFC

same assay, conditions: MMA

Substance	% (percentage of subjects responding to given antigen)	SFC (mean magnitude of response)
Receptor for activated protein kinase C [RACK1]	11%	3 SFC

same assay, conditions: SA

Substance	% (percentage of subjects responding to given antigen)	SFC (mean magnitude of response)
Receptor for activated protein kinase C [RACK1]	—	—

same assay, conditions: non-redundant epitopes; sensitized donors

Substance	Average Magnitude of Response	Response Rate per Subject
LKNYQLDSELRIKAF	3.2	1.4
LKYFNMGVQKFWAFD	19.8	8.6
LNAIEFINNIHDLLG	8.8	2.9
LNDYILPAPYEIYPW	3.0	2.9
LNIFTNNLGRINTHV (listed as Blattella germanica)	57.6	4.3
LNQEAHYQFDSIHKF	22.6	2.9
LNTYYSYYYFNYPTF	4.1	2.9
LRLSEHLDYVKNLTV	3.1	1.4
LTVFDSTSCNVVVAS	4.0	2.9
LVFLRNAKIELKPNQ	4.0	2.9
LVYPTSLGFPLKLVL	4.4	2.9
LWEINMIKAIISQLQ	3.5	2.9
MAPSYKLTYCPVKAL	8.8	4.3
MGVQKFWAFDNTTFS	7.3	7.1
MIVDTISDFRAAIAN (listed as Blattella germanica)	91.4	7.1
MNITGSINLMFSQMY	7.6	5.7
NAIEFLNNIHDLLGI	3.0	1.4
NASAVIQEFLKTYKK	5.0	2.9
NDIEKRVPFSHDDRL (listed as Blattella germanica)	72.8	15.7
NGGYLAAGKLTWADF (listed as Blattella germanica)	58.5	5.7
NIACLLHNKYDSTKS (listed as Blattella germanica)	61.0	2.9

Substance	Average Magnitude of Response	Response Rate per Subject
NLEIDMIVDTISDFR	19.1	2.9
NTTFSNASAVIQEFL	4.2	5.7
NVIYSQNSFLPRATT	3.8	1.4
NYAIVEGCPAAANGH (listed as Blattella germanica)	64.6	1.4
PAIKAWVAKRPPTDL	18.7	10.0
PAYFKMNSPSLWKYN (listed as Blattella germanica)	56.1	4.3
PKSMLLNIFTNNLGR (listed as Blattella germanica)	52.5	7.1
PLKKETIPYYTKKFD	14.2	5.7
PNLKPSMPFGKTPVL	4.2	2.9
PVDQIIAIATDYLAN	7.5	2.9
QDVHKKLREWLSKNV	8.5	1.4
QIIAIATDYLANDAE	7.5	2.9
QKGYMVSSMTDLWEA	13.9	8.6
QKKWDPLKKETIPYY	7.7	4.3
QPNLKALREKVLGLP	6.5	5.7
QQFISSEMVEPKEAS	6.8	2.9
QTHQSVAISRYLGKQ	4.3	4.3
QTLFLLLLLLAAVSA	3.2	1.4
QVYRRLVTAVNDIEK	44.1	5.7
RCGRSMQGYPFNPCL	20.4	10.0
RCNNVGIRIYVDVVL	13.0	2.9

Substance	Average Magnitude of Response	Response Rate per Subject
RDMVRRCNNVGIRIY	5.2	5.7
RGNNAIKWLVNFGVG	15.0	5.7
RHNSAYKLHFNAFEY	44.0	1.4
RIKAFLALVECPCNK	4.2	1.4
RILLRLHRCFQVLGR	13.5	1.4
RLFGAEVGWLALHHN	35.5	1.4
RSEERLATATAKLAE	13.3	1.4
RVPFSHDDRLGFLTF	34.2	7.1
RWRQIFNMVGFRNAV (listed as Blattella germanica)	61.7	11.4
SEVTALNRQIGGTPI	3.9	2.9
SHVHFRFVPSAAVEF	3.3	1.4
SINLMFSQMYHAQLA	4.3	1.4
SPYFVTNTEKMITEF	13.6	2.9
SSLFQVANQYTGILY	50.2	10.0
STSCNVVVASQECVG	4.2	4.3
STSLVKAHSMRNSAS	19.9	4.3
SVNATVVRLQSWQSE	4.1	2.9
TGILYKARLSLDRNE	4.3	2.9
THQFNVAGSVTVDKT	5.6	2.9
TIPYYTKKFDEVVKA (listed as Blattella germanica)	311.6	11.4
TKKFDEVVKANGGYL	24.3	4.3

same assay, conditions: sensitized subjects; 2-week extract stimulation

Substance	T cell reactivity (cytokine release) to NBGA, in words
Receptor for activated protein kinase C [RACK1]	Significant reactivity
